Counter-ions that a name gives are not always drawn. Like-named read-outs stand apart in the source and are kept apart here.
Key:
[1] = system: full-length AR (AR-FL); experiment: Degradation experiment on full-length AR (AR-FL) in 22RV1 cells; format: cell-based; details: 24 h, relative to vehicle control
Description: Prostate cancer cells 22RV1 were purchased from ATCC, the cell medium was 1640+10% FBS, and the cells were cultured in an incubator at 37° C. under 5% CO2. On day 1, the cells in an exponential phase were collected. With a 1% css-FBS phenol red-free medium, the cell suspension was adjusted to a corresponding concentration and plated into a 6-well plate at 1 mL/well and 100000 cells/well. The next day, a 1% css-FBS phenol-free medium containing the compound to be tested was added, a 1% css-FBS phenol-free medium containing 0.2% DMSO was added to one well as DMSO vehicle control, and the 6-well plate was cultured in an incubator at 37° C. under 5% CO2. After 24 h, the cells were digested with pancreatin and collected into a 1.5 mL centrifuge tube. 15 μL of RIPA lysate (containing 1×protease inhibitor cocktail) was added to each well, and the cells were lysed on ice for 15 min and then centrifuged at 12000 g and 4° C. for 10 min. The supernatant protein samples were collected, and protein quantification was performed by a BCA method. AR-FL and AR-Vs were detected using fully automatic protein expression quantitative analysis, which involved diluting the protein to be tested to 1 mg/mL. 4 μL of the diluted protein samples were added to 1 μL of 5×Master Mix (provided in the kit), and the prepared samples were denatured at 95° C. for 5 min and placed on ice for use. The primary antibodies, AR (CST, 5153S) and β-actin (CST, 3700), were diluted with Antibody Diluent II (provided in the kit) at a dilution ratio of 1:20 and 1:200, respectively. The secondary antibody was a mixed goat anti-mouse and goat anti-rabbit secondary antibody in a ratio of 1:1, and the color development solution was a mixed solution of Lumino-S and Peroxide in a ratio of 1:1. The prepared reagents were successively added to an assay plate according to instructions of the kit and detected on an instrument. Western blot band processing was performed using “Compass for SW”, a fully automatic protein expression quantitative analysis software, in which western blot bands were automatically simulated based on signal values. The degradation rate of AR-FL (3) or AR-Vs (4) relative to vehicle control at different compound concentrations was calculated according to formulas (3) and (4), wherein AR-FLcompound was the relative peak area of AR-FL in the treated group, and AR-FLsolvent was the relative peak area of AR-FL in the vehicle control group; AR-Vscompound was the relative peak area of AR-Vs in the treated group, and AR-Vssolvent was the relative peak area of AR-Vs in the vehicle control group.
DC50 calculation: the compound concentration DC50 values at which the degradation rate of AR-FL or AR-Vs was 50% were calculated using OriginPro2015 software and analyzed using DoseResp function according to formula (3) or (4).

[2] = system: 22RV1 cells; experiment: Experiment 2 on inhibiting 22RV1 cell proliferation (7 days, CellTiter-Glo); format: cell-based; details: 1% css-FBS phenol red-free medium, incubated with compound 7 days, read-out: IC50 values on proliferation inhibition of 22RV1 cells
Procedure, shortened: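 22RV1 cells plated at 2000/well in phenol red-free medium with 1% css-FBS and treated next day with compound for 7 days at 37 °C. Viability read by CellTiter-Glo luminescence relative to DMSO vehicle; IC50 from dose-response fit.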

[3] = Pharmacokinetic test in rats; format: in vivo; details: rat, po; male SD rats, single dose i.g. 5 mg/kg, plasma, 0-24 h
Description: Test objective: in this test, a single dose of test compounds was administered to SD rats intragastrically, and the concentrations of the test compounds in plasma of the rats were measured to evaluate pharmacokinetic characteristics of the test compounds in the rats.
Test animals: male SD rats, 200-250 g, 6-8 weeks old, 3 rats/compound, purchased from Chengdu Dossy Experimental Animals Co., Ltd.
Test method: on the day of the test, 3 SD rats were randomly grouped according to their body weights. The animals were fasted with water available for 12 to 14 hours one day before the administration of a test compound, and were fed 4 hours after the administration.
Sampling: before and after the administration, 0.1 mL of blood was taken from the orbits of the rats under isoflurane anesthesia, and placed in an EDTAK2 centrifuge tube. Centrifugation was carried out at 5000 rpm at 4C for […], and the plasma was collected.
Time points for plasma collection in G1 group: 0, 5 min, 15 min, 30 min, 1 h, 2 h, 4 h, 6 h, 8 h, and 24 h.
Before analysis and detection, all samples were stored at −80° C. The samples were analyzed quantitatively by LC-MS/MS.

SMILES | AR-FL Dmax % (maximum degradation rate) [1] | IC50 ([2]; Homo sapiens, 22Rv1, 168 h) | AUC(0-t) [3] | IC50 [2]
CC(C)(c1ccc(OCc2ccnc(N3CCN(C4CCN(C5CN(c6ccc7c(c6)C(=O)N(C6CCC(=O)NC6=O)C7=O)C5)CC4)CC3)n2)cc1)c1cc(Cl)c(OCCCl)c(C#N)c1 (stereo not shown) [Compound 5 trifluoroacetate, 3-chloro-2-(2-chloroethoxy)-5-(2-(4-((2-(4-(1-(1-(2-(2,6-dioxopiperidin-3-yl)-1,3-dioxoisoindolin-5-yl)azetidin-3-yl)piperidin-4-yl)piperazin-1-yl)pyrimidin-4-yl)methoxy)phenyl)propan-2-yl)benzonitrile (Compound 5) trifluoroacetate] | 52.5% |  |  | 
Cn1c(=O)n(C2CCC(=O)NC2=O)c2cccc(CN3CC(N4CCC(N5CCN(c6nccc(COc7ccc(C(C)(C)c8cc(Cl)c(OCCCl)c(C#N)c8)cc7)n6)CC5)CC4)C3)c21 (stereo not shown) [Compound 6 trifluoroacetate, 3-chloro-2-(2-chloroethoxy)-5-(2-(4-((2-(4-(1-(1-((1-(2,6-dioxopiperidin-3-yl)-3-methyl-2-oxo-2,3-dihydro-1H-benzol[d]imidazol-4-yl)methyl)azetidin-3-yl)piperidin-4-yl)piperazin-1-yl)pyrimidin-4-yl)methoxy)phenyl)propan-2-yl)benzonitrile (Compound 6) trifluoroacetate] | 57.6% |  |  | 
Cn1c(=O)n(C2CCC(=O)NC2=O)c2ccc(N3CCC(C4CCN(CC5CCN(c6nccc(COc7ccc(C(C)(C)c8cc(Cl)c(OCCCl)c(C#N)c8)cc7)n6)CC5)CC4)CC3)cc21 (stereo not shown) [Compound 98 trifluoroacetate, 3-chloro-2-(2-chloroethoxy)-5-(2-(4-((2-(4-((1′-(1-(2,6-dioxopiperidin-3-yl)-3-methyl-2-oxo-2,3-dihydro-1H-benzo[d]imidazol-5-yl)-[4,4′-bipiperidin]-1-yl)methyl)piperidin-1-yl)pyrimidin-4-yl)methoxy)phenyl)propan-2-yl)benzonitrile] |  | 621 nM | 492 ± 266 ng·h/mL | 
[2H]C([2H])([2H])Oc1c(Cl)cc(C(C)(C)c2ccc(OCc3ccnc(N4CCC(CN5CCC(C6CCN(c7ccc8c(c7)n(C)c(=O)n8C7CCC(=O)NC7=O)CC6)CC5)CC4)n3)cc2)cc1C#N (stereo not shown) [Compound 99 trifluoroacetate, 3-chloro-5-(2-(4-((2-(4-((1′-(1-(2,6-dioxopiperidin-3-yl)-3-methyl-2-oxo-2,3-dihydro-1H-benzo[d]imidazol-5-yl)-[4,4′-bipiperidin]-1-yl)methyl)piperidin-1-yl)pyrimidin-4-yl)methoxy)phenyl)propan-2-yl)-2-(methoxy-d3)benzonitrile] |  | 427 nM | 541 ± 80 ng·h/mL | 
CCOc1c(Cl)cc(C(C)(C)c2ccc(OCc3ccnc(N4CCC(CN5CCC(C6CCN(c7ccc(C(=O)NC8CCC(=O)NC8=O)nc7)CC6)CC5)CC4)n3)cc2)cc1C#N (stereo not shown) [Compound 111 trifluoroacetate, 5-(1′-((1-(4-((4-(2-(3-chloro-5-cyano-4-ethoxyphenyl)propan-2-yl)phenoxy)methyl)pyrimidin-2-yl)piperidin-4-yl)methyl)-[4,4′-bipiperidin]-1-yl)-N-(2,6-dioxopiperidin-3-yl)picolinamide] |  | 290 nM | 574 ± 59 ng·h/mL | 
COc1c(Cl)cc(C(C)(C)c2ccc(OCc3ccnc(N4CCC(CN5CCC(C6CCN(c7ccc(C(=O)NC8CCC(=O)NC8=O)nc7)CC6)CC5)CC4)n3)cc2)cc1C#N (stereo not shown) [Compound 112 trifluoroacetate, 5-(1′-((1-(4-((4-(2-(3-chloro-5-cyano-4-methoxyphenyl)propan-2-yl)phenoxy)methyl)pyrimidin-2-yl)piperidin-4-yl)methyl)-[4,4′-bipiperidin]-1-yl)-N-(2,6-dioxopiperidin-3-yl)picolinamide] |  | 463 nM | 827 ± 211 ng·h/mL | 
COc1c(Cl)cc(C(C)(C)c2ccc(OCc3ccnc(N4CCC(CN5CCC(C6CCN(c7cc8c(cc7F)n(C7CCC(=O)NC7=O)c(=O)n8C)CC6)CC5)CC4)n3)cc2)cc1C#N (stereo not shown) [Compound 123 trifluoroacetate, 3-chloro-5-(2-(4-((2-(4-((1′-(1-(2,6-dioxopiperidin-3-yl)-6-fluoro-3-methyl-2-oxo-2,3-dihydro-1H-benzo[d]imidazol-5-yl)-[4,4′-bipiperidin]-1-yl)methyl)piperidin-1-yl)pyrimidin-4-yl)methoxy)phenyl)propan-2-yl)-2-methoxybenzonitrile] |  | 527 nM | 1190 ± 724 ng·h/mL | 
CC(Oc1ccc(C(C)(C)c2cc(Cl)cc(C#N)c2)cc1)c1ccnc(N2CCC(CN3CCC(C4CCN(c5cc6c(cc5F)C(=O)N(C5CCC(=O)NC5=O)C6=O)CC4)CC3)CC2)n1 (stereo not shown) [Compound 127, 3-chloro-5-(2-(4-(1-(2-(4-((1′-(2-(2,6-dioxopiperidin-3-yl)-6-fluoro-1,3-dioxoisoindolin-5-yl)-[4,4′-bipiperidin]-1-yl)methyl)piperidin-1-yl)pyrimidin-4-yl)ethoxy)phenyl)propan-2-yl)benzonitrile] |  |  | 1860 ± 185 ng·h/mL | 549 nM
CC(C)(c1ccc(OCc2ccnc(N3CCC4(CC3)CCN(C3CC5(CCN(c6ccc7c(c6)C(=O)N(C6CCC(=O)NC6=O)C7=O)CC5)C3)CC4)n2)cc1)c1cc(Cl)cc(C#N)c1 (stereo not shown) [Compound 128, 3-chloro-5-(2-(4-((2-(9-(7-(2-(2,6-dioxopiperidin-3-yl)-1,3-dioxoisoindolin-5-yl)-7-azaspiro[3.5]nonan-2-yl)-3,9-diazaspiro[5.5]undecan-3-yl)pyrimidin-4-yl)methoxy)phenyl)propan-2-yl)benzonitrile] |  |  | 604 ± 149 ng·h/mL | 132 nM
CC(C)(c1ccc(OCc2ccnc(N3CCC4(CCN(CC5CC6(CCN(c7ccc8c(c7)C(=O)N(C7CCC(=O)NC7=O)C8=O)CC6)C5)CC4)CC3)n2)cc1)c1cc(Cl)cc(C#N)c1 (stereo not shown) [Compound 129, 3-chloro-5-(2-(4-((2-(9-((7-(2-(2,6-dioxopiperidin-3-yl)-1,3-dioxoisoindolin-5-yl)-7-azaspiro[3.5]nonan-2-yl)methyl)-3,9-diazaspiro[5.5]undecan-3-yl)pyrimidin-4-yl)methoxy)phenyl)propan-2-yl)benzonitrile] |  |  | 812 ± 304 ng·h/mL | 569 nM
CC(C)(c1ccc(OCc2ccnc(N3CCC(CN4CCC(C5CCN(c6ccc7c(c6)C(=O)N(C6CCC(=O)NC6=O)C7=O)CC5)CC4)C3)n2)cc1)c1cc(Cl)cc(C#N)c1 (stereo not shown) [Compound 130, 3-chloro-5-(2-(4-((2-(3-((1′-(2-(2,6-dioxopiperidin-3-yl)-1,3-dioxoisoindolin-5-yl)-[4,4′-bipiperidin]-1-yl)methyl)pyrrolidin-1-yl)pyrimidin-4-yl)methoxy)phenyl)propan-2-yl)benzonitrile] |  |  | 665 ± 264 ng·h/mL | 483 nM
CC(C)(c1ccc(OCc2ccnc(N3CCC(N4CCC(C5CCN(c6ccc7c(c6)C(=O)N(C6CCC(=O)NC6=O)C7=O)CC5)CC4)CC3)n2)cc1)c1cc(Cl)cc(C#N)c1 (stereo not shown) [Compound 131, 3-chloro-5-(2-(4-((2-(1″-(2-(2,6-dioxopiperidin-3-yl)-1,3-dioxoisoindolin-5-yl)-[4,1′:4′,4″-terpiperidin]-1-yl)pyrimidin-4-yl)methoxy)phenyl)propan-2-yl)benzonitrile] |  |  | 446 ± 225 ng·h/mL | 507 nM

— patent US20240383874A1, “BENZENE RING DERIVATIVE, AND COMPOSITION AND PHARMACEUTICAL USE THEREOF” (Xizang Haisco Pharmaceutical Co., Ltd., priority 2020, published 2024)
